Test in all cases: inhibition of tumour cell growth, NCI panel, 48 h
For test [1], the system named is SNB-19 CNS.
Test [2] deals with HT29 colon.
Test [3] deals with SF-539 CNS.
In test [4] the test system is UO-31 renal.
For test [5], the system named is SK-MEL-5 melanoma.
For test [6], the system named is OVCAR-5 ovarian.
The test system of test [7] is RPMI-8226 leukemia.
Test [8] deals with NCI-H460 lung.
In test [9] the test system is SF-268 CNS.
The test system of test [10] is UACC-62 melanoma.
Test [11] relates to SK-OV-3 ovarian.
For test [12], the system named is MDA-MB-435.
Test [13] has as its system MDA-MB-231 breast.
Test [14] has as its system NCI/ADR-RES ovarian.
The test system of test [15] is BT-549 breast.
The test system of test [16] is T-47D breast.

The structures appear in SMILES notation.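 The compound was tested at five concentrations on cells cultured in 96-well plates, with a 48-hour exposure period. TGI: concentration producing complete growth inhibition.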

`O=S1(=O)NNC(=NCc2ccc(Cl)c(Cl)c2)c2ccccc21`: the TGI in [1], in test [2], in test [3], in [4], in test [5] and in [6] was above 100 µM each time. For the same compound, the TGI is 61 µM in test [7], above 100 µM in [8], above 100 µM in test [9] and above 100 µM in test [10].

Regarding `CCN(CC)c1ccc2c(c1)OC(=O)C(c1nnc(-c3ccc([N+](=O)[O-])cc3)o1)C2` (configuration not stated), the TGI in test [11], in test [12], in [13], in [1], in test [2] and in [14] was above 100 µM each time. For the same compound, the TGI in test [4], in test [5], in test [6], in test [7], in test [8] and in test [9] was above 100 µM throughout. Also, the TGI in test [15] and in test [10] was above 100 µM each time.

Consider `O=C(C/C(=N\NC(=O)C[n+]1ccccc1)C(=O)Nc1nc2ccc([N+](=O)[O-])cc2s1)CC(c1ccccc1)c1c(O)c2ccccc2oc1=O` (configuration not stated), for which the TGI in test [11], in [1], in test [2], in test [3], in test [4] and in test [5] was above 100 µM each time. For the same compound, the TGI in test [6], in test [7], in [8], in [9] and in test [10] was above 100 µM each time.

For the compound `CC12CCC([C@H](N3CCOCC3)/C1=N\OCCN1CCCC1)C2(C)C` (some centres not stated), the TGI in test [11], in [1], in [2], in [3], in test [4] and in test [5] was above 100 µM in each case. Also, the TGI in test [6], in test [7], in [8], in [9] and in test [10] was above 100 µM throughout.

As for `COc1ccc(-c2cnoc2-c2ccc(OC)c(OC)c2)cc1OC`, the TGI in [11] was found to be 5.41 µM; in [1], 98.6 µM; in test [2] it was 11.1 µM; in test [3] it was 3.3 µM; in [4], 41.6 µM; in test [5], 6.71 µM. In addition, the TGI came to 36 µM in [6]; 18.5 µM in [7]; 19.8 µM in [8]; 15 µM in test [9]; 1.78 µM in test [10].

Consider `C=C[C@@]1(C)CCC2(O)C(CCC3C2(C)CCC[C@@]3(C)COC(=O)CC(=O)OC)C1` (some centres not stated), for which the TGI was above 100 µM in test [11]; above 100 µM in test [1]; 33.2 µM in test [2]; 36.1 µM in [3]; above 100 µM in test [4]; 32.1 µM in test [5]. Also, the TGI in test [6] was 57.8 µM; in test [7], 47 µM; in test [8], above 100 µM; in [9], 55.3 µM; in test [10] it was 32.3 µM.

With `Cc1nc(Cl)c2sc(=S)n(-c3ccc(F)cc3)c2n1`, the TGI amounted to 25.9 µM in [11]; 8.68 µM in test [12]; 20.7 µM in test [13]; 5.06 µM in test [1]; 5.51 µM in test [2]; 25.5 µM in [14]. In addition, the TGI is 3.17 µM in [4]; 10.3 µM in [5]; 24.1 µM in test [6]; above 100 µM in test [7]; 26.5 µM in test [8]; 5.29 µM in test [9]. Besides, the TGI came out at 12.1 µM in test [15] and 24 µM in test [10].

Regarding `O=C(O)c1c[nH]c2c(=O)[nH]cnc12`, the TGI in test [11], in [1], in test [2], in [4], in test [5] and in [6] was above 100 µM in each case. Moreover, the TGI in test [7], in [9] and in test [10] was above 100 µM each time.

Consider `CCC[C@H](O)[C@@H](CNc1cc(NC(C)=O)nc(NC(C)=O)n1)N(Cc1ccccc1)Cc1ccccc1`, for which the TGI was 63.4 µM in [11]; above 100 µM in test [12]; above 100 µM in [13]; above 100 µM in [1]; 73.3 µM in test [14]; 48.6 µM in test [4]. The TGI in test [5] is above 100 µM; in [6] it was above 100 µM; in test [7], above 100 µM; in [8] it was above 100 µM; in test [15], 35.9 µM; in test [10], 57 µM.

In the case of `CNC(C)Cc1ccccc1O` (configuration not stated), the TGI in test [11], in test [1], in [2], in test [3], in test [4] and in test [5] was above 100 µM in each case. The TGI in test [6], in test [7], in [8], in [9] and in test [10] was above 100 µM each time.

Turning to `O=C1CSC(/C(=C/c2ccccc2)c2nc3ccccc3[nH]2)=N1`, the TGI in test [11] was 59.5 µM; in test [1] it was above 100 µM; in test [2], above 100 µM; in test [3] it was 74.4 µM; in test [4] it was above 100 µM; in test [5] it was 38.3 µM. The TGI in test [6], in [8], in test [9] and in test [10] was above 100 µM throughout.

In the case of `C=CCC1C(=O)C(C(=O)OC)N2CCc3c([nH]c4ccccc34)C12` (configuration not stated), the TGI in test [11], in test [1], in [2], in [3], in test [4] and in test [5] was above 100 µM each time. Besides, the TGI in [6], in test [7], in test [9] and in [10] was above 100 µM throughout.

Regarding `CCN(CC)CCNc1ccc2ncn3c4c(OC)ccc(OC)c4c(=O)c1c23`, the TGI in test [11] was 44.9 µM; in [13], 29.1 µM; in [1], 58.7 µM; in [3], 44.1 µM; in test [14], 31.1 µM; in [4] it was above 100 µM. Besides, the TGI was 31.4 µM in test [5]; 31.3 µM in [8]; 17.2 µM in test [9]; above 100 µM in test [16]; 57.5 µM in [10].

`COC1(C(C)(C)C)C=C(C(C)(C)C)P(=O)(O)O1` (configuration not stated): the TGI in [11], in test [12], in test [1], in test [2], in [3] and in test [14] was above 100 µM each time. Besides, the TGI in test [5], in test [6], in [7], in [8], in [9] and in [16] was above 100 µM throughout. In test [10], this compound yielded a TGI above 100 µM.

Regarding `CC1C2=C(CC(C)(C)CC2=O)NC2=C1C(=O)CC(C)(C)C2`, the TGI in [11], in test [1], in [2], in test [3], in test [14] and in [4] was above 100 µM throughout. Besides, the TGI in test [5], in [6], in test [7], in test [8], in test [9] and in test [15] was above 100 µM throughout. Besides, the TGI in test [10] was above 100 µM.

For the compound `C=CCN1C(=O)CC1N(CC=C)S(=O)(=O)c1ccc(C)cc1` (configuration not stated), the TGI in test [11], in test [12], in [1], in test [2], in test [14] and in test [4] was above 100 µM in each case. Moreover, the TGI in test [5], in test [6], in test [7], in test [8], in test [15] and in test [10] was above 100 µM in each case.

In the case of `COC(=O)C1CC(=O)CCC1c1ccccc1` (configuration not stated), the TGI in test [11], in test [1], in [2], in test [3], in test [4] and in test [5] was above 100 µM in each case. In addition, the TGI in [6], in test [7], in test [8], in test [9] and in test [10] was above 100 µM throughout.

For the compound `C#CCSc1nc(N)c2ncn(C3OC(CO)C(O)C3O)c2n1` (configuration not stated), the TGI in test [1], in test [2], in test [4], in test [5], in test [7] and in test [8] was above 100 µM each time. This compound displayed a TGI in test [9] above 100 µM.

For `O=C(CC(=O)C(=O)Nc1ccccc1)CC(c1ccccc1)c1c(O)c2ccccc2oc1=O` (configuration not stated), the TGI in test [11], in [1], in [2], in test [3], in test [4] and in test [5] was above 100 µM throughout. Further, the TGI in test [6], in [8], in test [9] and in test [10] was above 100 µM throughout.

On to `NCCC(=O)N[C@H](Cc1cc(O)c(O)c(SCC(NC(=O)CC[C@H](N)C(=O)O)C(=O)NCC(=O)O)c1)C(=O)O` (some centres not stated), for which the TGI in test [11], in test [12], in test [13], in test [1], in [2] and in test [14] was above 50 µM throughout. Besides, the TGI in test [4], in [5], in test [6], in test [7], in test [8] and in test [9] was above 50 µM each time. Further, the TGI in test [15] and in test [10] was above 50 µM each time.

With `NC(=O)c1cc(-c2ccc(-n3ccnc3)cc2)n[nH]c1=O`, the TGI in [11], in [12], in [1], in test [3], in test [4] and in [5] was above 100 µM in each case. For the same compound, the TGI in test [6], in [7], in test [8], in test [9], in test [15] and in test [10] was above 100 µM in each case.

As for `CCCCCCCC(=O)OC[C@@H](C[As](=O)(O)O)OC(=O)CCCCCCC`, the TGI was found to be 28.1 µM in test [11]; 27.3 µM in test [1]; 28.1 µM in test [2]; 22.3 µM in test [3]; 17.1 µM in test [4]; 26.9 µM in test [5]. The TGI came to 46.2 µM in test [7], 20.3 µM in [9] and 23.4 µM in test [10].

For the compound `CC1=CCC2(C#N)CCC1C2O` (configuration not stated), the TGI in test [11], in test [1], in test [2], in test [3], in test [4] and in test [5] was above 100 µM throughout. Further, the TGI in [6], in test [7], in test [8], in [9] and in test [10] was above 100 µM each time.

Source of the values: PubChem BioAssay (NCI).
